{"source": "patent US20230287510A1", "about": "“COMPOSITIONS, PANELS, AND METHODS FOR CHARACTERIZING CHRONIC LYMPHOCYTIC LEUKEMIA” (The Broad Institute, Inc., priority 2020, published 2023)", "system": "chronic lymphocytic leukemia (CLL) samples classified by expression subtype (Ec-i, EC-m1, EC-m2, EC-m3, EC-m4, EC-o, EC-u1, EC-u2)", "experiment": "Ex-vivo drug sensitivity (percent viability) of CLL samples compared between expression subtypes (ECs); as to Mean viability in the EC: test concentration or dose not given here; as to Mean viability in the other ECs: test concentration or dose not given here", "format": "cell-based", "from_the_text": "An analysis was completed to determine whether the expression clusters (ECs) can be used to predict the resistance and sensitivity of different chronic lymphocytic leukemias to various drugs. […] The expression subtypes were then used with the drug sensitivity data to compare the percent […] of samples in each expression cluster to the percent viability of samples in all other expression clusters.", "data": [{"smiles": "C=CC(=O)Nc1cccc(Nc2nc(Nc3ccc(OCCOC)cc3)ncc2F)c1", "note": "[spebrutinib]", "values": [{"measurement": "Mean viability in the other ECs", "setting": "all ECs other than EC-m4", "result": 0.95}, {"measurement": "Mean viability in the other ECs", "setting": "all ECs other than EC-u1", "result": 0.98}, {"measurement": "Mean viability in the other ECs", "setting": "all ECs other than EC-u2", "result": 0.96}, {"measurement": "Mean viability in the EC", "setting": "expression cluster EC-m4", "result": 1.01}, {"measurement": "Mean viability in the EC", "setting": "expression cluster EC-u1", "result": 0.92}, {"measurement": "Mean viability in the EC", "setting": "expression cluster EC-u2", "result": 0.88}]}, {"smiles": "C[C@H](Nc1ncnc2[nH]cnc12)c1cc2cccc(Cl)c2c(=O)n1-c1ccccc1", "note": "[duvelisib]", "values": [{"measurement": "Mean viability in the other ECs", "setting": "all ECs other than EC-m3", "result": 0.88}, {"measurement": "Mean viability in the other ECs", "setting": "all ECs other than EC-m4", "result": 0.87}, {"measurement": "Mean viability in the other ECs", "setting": "all ECs other than EC-u1", "result": 0.90}, {"measurement": "Mean viability in the other ECs", "setting": "all ECs other than EC-u2", "result": 0.89}, {"measurement": "Drug response associated with the EC", "setting": "expression cluster EC-m3", "result": "Resistant"}, {"measurement": "Mean viability in the EC", "setting": "expression cluster EC-m3", "result": 0.95}, {"measurement": "Drug response associated with the EC", "setting": "expression cluster EC-m4", "result": "Resistant"}, {"measurement": "Mean viability in the EC", "setting": "expression cluster EC-m4", "result": 0.94}, {"measurement": "Drug response associated with the EC", "setting": "expression cluster EC-u1", "result": "Sensitive"}, {"measurement": "Mean viability in the EC", "setting": "expression cluster EC-u1", "result": 0.85}, {"measurement": "Drug response associated with the EC", "setting": "expression cluster EC-u2", "result": "Sensitive"}, {"measurement": "Mean viability in the EC", "setting": "expression cluster EC-u2", "result": 0.73}]}, {"smiles": "Cl.NC(=O)c1cnc(N[C@@H]2CCCC[C@@H]2N)nc1Nc1cccc(-n2nccn2)c1", "note": "[PRT062607 HCl]", "values": [{"measurement": "Drug response associated with the EC", "setting": "expression cluster EC-i", "result": "Resistant"}, {"measurement": "Drug response associated with the EC", "setting": "expression cluster EC-m3", "result": "Resistant"}, {"measurement": "Drug response associated with the EC", "setting": "expression cluster EC-m4", "result": "Resistant"}, {"measurement": "Drug response associated with the EC", "setting": "expression cluster EC-u1", "result": "Sensitive"}, {"measurement": "Drug response associated with the EC", "setting": "expression cluster EC-u2", "result": "Sensitive"}]}, {"smiles": "COc1cc(N2CCC(N3CCN(C)CC3)CC2)ccc1Nc1ncc(Cl)c(Nc2ccccc2S(=O)(=O)C(C)C)n1", "note": "[TAE684]", "values": [{"measurement": "Mean viability in the other ECs", "setting": "all ECs other than EC-m1", "result": 1.01}, {"measurement": "Mean viability in the other ECs", "setting": "all ECs other than EC-m4", "result": 1.01}, {"measurement": "Mean viability in the other ECs", "setting": "all ECs other than EC-u1", "result": 1.03}, {"measurement": "Drug response associated with the EC", "setting": "expression cluster EC-m1", "result": "Resistant"}, {"measurement": "Mean viability in the EC", "setting": "expression cluster EC-m1", "result": 1.07}, {"measurement": "Drug response associated with the EC", "setting": "expression cluster EC-m4", "result": "Resistant"}, {"measurement": "Mean viability in the EC", "setting": "expression cluster EC-m4", "result": 1.04}, {"measurement": "Drug response associated with the EC", "setting": "expression cluster EC-u1", "result": "Sensitive"}, {"measurement": "Mean viability in the EC", "setting": "expression cluster EC-u1", "result": 0.98}]}, {"smiles": "CN1CCC(CNc2ccc3ncc(-c4cccc(OC(F)(F)F)c4)n3n2)CC1", "note": "[SGI-1776]", "values": [{"measurement": "Mean viability in the other ECs", "setting": "all ECs other than EC-m1", "result": 1.03}, {"measurement": "Mean viability in the other ECs", "setting": "all ECs other than EC-u1", "result": 1.04}, {"measurement": "Drug response associated with the EC", "setting": "expression cluster EC-m1", "result": "Resistant"}, {"measurement": "Mean viability in the EC", "setting": "expression cluster EC-m1", "result": 1.09}, {"measurement": "Drug response associated with the EC", "setting": "expression cluster EC-u1", "result": "Sensitive"}, {"measurement": "Mean viability in the EC", "setting": "expression cluster EC-u1", "result": 1.01}]}, {"smiles": "Cn1cnc2c(F)c(Nc3ccc(Br)cc3Cl)c(C(=O)NOCCO)cc21", "note": "[selumetinib]", "values": [{"measurement": "Mean viability in the other ECs", "setting": "all ECs other than EC-i", "result": 0.92}, {"measurement": "Mean viability in the other ECs", "setting": "all ECs other than EC-m3", "result": 0.93}, {"measurement": "Mean viability in the other ECs", "setting": "all ECs other than EC-m4", "result": 0.92}, {"measurement": "Mean viability in the other ECs", "setting": "all ECs other than EC-u1", "result": 0.94}, {"measurement": "Mean viability in the other ECs", "setting": "all ECs other than EC-u2", "result": 0.94}, {"measurement": "Drug response associated with the EC", "setting": "expression cluster EC-i", "result": "Resistant"}, {"measurement": "Mean viability in the EC", "setting": "expression cluster EC-i", "result": 0.97}, {"measurement": "Drug response associated with the EC", "setting": "expression cluster EC-m3", "result": "Resistant"}, {"measurement": "Mean viability in the EC", "setting": "expression cluster EC-m3", "result": 0.97}, {"measurement": "Drug response associated with the EC", "setting": "expression cluster EC-m4", "result": "Resistant"}, {"measurement": "Mean viability in the EC", "setting": "expression cluster EC-m4", "result": 0.97}, {"measurement": "Drug response associated with the EC", "setting": "expression cluster EC-u1", "result": "Sensitive"}, {"measurement": "Mean viability in the EC", "setting": "expression cluster EC-u1", "result": 0.91}, {"measurement": "Drug response associated with the EC", "setting": "expression cluster EC-u2", "result": "Sensitive"}, {"measurement": "Mean viability in the EC", "setting": "expression cluster EC-u2", "result": 0.79}]}, {"smiles": "CC(C)(C)c1ccc(S(=O)(=O)/C=C/C#N)cc1", "note": "[BAY 11-7085]", "values": [{"measurement": "Drug response associated with the EC", "setting": "expression cluster EC-i", "result": "Resistant"}, {"measurement": "Drug response associated with the EC", "setting": "expression cluster EC-u1", "result": "Sensitive"}]}, {"smiles": "C/C=C(/C)C(=O)O[C@H]1C(C)=C2[C@H]([C@@H]1OC(=O)CCCCCCC)[C@@](C)(OC(C)=O)C[C@H](OC(=O)CCC)[C@@]1(O)[C@H]2OC(=O)[C@@]1(C)O", "note": "[thapsigargin]", "values": [{"measurement": "Drug response associated with the EC", "setting": "expression cluster EC-i", "result": "Sensitive"}, {"measurement": "Drug response associated with the EC", "setting": "expression cluster EC-u2", "result": "Resistant"}]}, {"smiles": "CN1CCN(CCOc2cc(OC3CCOCC3)c3c(Nc4c(Cl)ccc5c4OCO5)ncnc3c2)CC1", "note": "[saracatinib]", "values": [{"measurement": "Mean viability in the other ECs", "setting": "all ECs other than EC-i", "result": 1.07}, {"measurement": "Mean viability in the EC", "setting": "expression cluster EC-i", "result": 1.13}]}, {"smiles": "CC1(C)CCC(CN2CCN(c3ccc(C(=O)NS(=O)(=O)c4ccc(NCC5CCOCC5)c([N+](=O)[O-])c4)c(Oc4cnc5[nH]ccc5c4)c3)CC2)=C(c2ccc(Cl)cc2)C1", "note": "[venetoclax]", "values": [{"measurement": "Mean viability in the other ECs", "setting": "all ECs other than EC-u1", "result": 0.45}, {"measurement": "Drug response associated with the EC", "setting": "expression cluster EC-u1", "result": "Resistant"}, {"measurement": "Mean viability in the EC", "setting": "expression cluster EC-u1", "result": 0.54}]}, {"smiles": "CN(C)C/C=C/C(=O)Nc1cc2c(Nc3ccc(F)c(Cl)c3)ncnc2cc1O[C@H]1CCOC1", "note": "[afatinib]", "values": [{"measurement": "Mean viability in the other ECs", "setting": "all ECs other than EC-m3", "result": 1.08}, {"measurement": "Mean viability in the other ECs", "setting": "all ECs other than EC-m4", "result": 1.09}, {"measurement": "Mean viability in the EC", "setting": "expression cluster EC-m3", "result": 1.03}, {"measurement": "Mean viability in the EC", "setting": "expression cluster EC-m4", "result": 1.02}]}, {"smiles": "COCCn1c2c([n+](Cc3cnccn3)c1C)C(=O)c1ccccc1C2=O", "note": "[YM155]", "values": [{"measurement": "Mean viability in the other ECs", "setting": "all ECs other than EC-u1", "result": 0.64}, {"measurement": "Drug response associated with the EC", "setting": "expression cluster EC-u1", "result": "Sensitive"}, {"measurement": "Mean viability in the EC", "setting": "expression cluster EC-u1", "result": 0.53}]}]}
